Values joined by “and” are separate entries in the source; they are usually repeats but may differ in a detail not shown here. Identical values can stand only once. “Also recorded” adds a separate entry of the source. Like-named read-outs stand apart in the source and are kept apart here. Blank lines part the entries; values can stand above or below the molecule they belong to.
Tests used:
NTRK2 [1] = target: T1, NTRK2 (Homo sapiens (Human), UniProt Q16620); assay: Promega NTRK2 NanoBRET live-cell target engagement; type: cell-based; settings: live cells
T1 sequence (Q16620 32-822): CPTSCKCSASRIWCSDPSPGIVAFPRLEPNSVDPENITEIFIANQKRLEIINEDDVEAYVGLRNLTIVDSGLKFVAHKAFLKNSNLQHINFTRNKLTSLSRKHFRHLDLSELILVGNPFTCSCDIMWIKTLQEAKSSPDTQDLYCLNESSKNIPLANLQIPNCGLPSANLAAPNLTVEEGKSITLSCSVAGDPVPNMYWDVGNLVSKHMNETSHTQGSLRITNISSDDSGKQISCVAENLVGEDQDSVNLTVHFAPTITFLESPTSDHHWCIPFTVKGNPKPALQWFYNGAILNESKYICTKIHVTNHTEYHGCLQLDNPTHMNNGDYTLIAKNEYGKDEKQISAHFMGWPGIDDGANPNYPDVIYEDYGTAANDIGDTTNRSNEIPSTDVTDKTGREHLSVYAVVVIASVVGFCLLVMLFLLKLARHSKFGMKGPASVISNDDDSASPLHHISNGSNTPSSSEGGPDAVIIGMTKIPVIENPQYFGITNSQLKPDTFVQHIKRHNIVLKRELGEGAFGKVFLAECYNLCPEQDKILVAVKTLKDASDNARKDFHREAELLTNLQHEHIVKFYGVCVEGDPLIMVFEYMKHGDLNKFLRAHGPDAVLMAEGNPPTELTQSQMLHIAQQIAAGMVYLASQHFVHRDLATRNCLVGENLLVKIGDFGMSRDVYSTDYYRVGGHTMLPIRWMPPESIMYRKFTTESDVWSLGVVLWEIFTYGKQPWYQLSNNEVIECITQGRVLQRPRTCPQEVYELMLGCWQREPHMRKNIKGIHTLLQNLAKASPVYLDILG
Excerpt: FIGS. 6A-6B show the live-cell engagement (FIG. 6A) concept and an NTRK2 example (FIG. 6B). FIG. 6A: Depiction of Promega's NanoBRET target engagement system as per their website. The system involves cell-based competitive displacement of a fluorescent NanoBRET tracer bound reversibly to a NanoLuc fusion protein. Test compounds displace the tracer dependent on their affinity for the target and […] the NanoBRET signal. FIG. 6B: Example of the use of Promega's NTRK2 NanoBRET cell-based system. Each NTRK2 compound (Cpd) was assayed in kinase assays and in cells. Multiple NTRK2 compounds enter the cell and are potent nanomolar inhibitors in these assays (% normalized to no Cpd).
As described elsewhere herein, hit compounds, including but not limited to CDD-2262, and its smaller analog, CDD-2330, were synthesized off-DNA and evaluated for NTRK2 activity.

[2] = mouse, microsomes
[3] = human, microsomes
NTRK2 [4] = target: T1, NTRK2; assay: NTRK2 apparent inhibition constant (Ki app)
NTRK2 [5] = target: T1, NTRK2; assay: NTRK2 inhibition (IC50); type: biochemical
[6] = Metabolic stability in mouse and human liver microsomes; type: in vitro ADME; settings: mouse and human liver microsomes in vitro
[7] = test system: PTGS2 mRNA in endometriotic stromal cells; assay: PGE2-stimulated PTGS2 gene expression in endometriotic stromal cells (RT-PCR); type: cell-based; settings: 1 μM PGE2, 6-hour period
Excerpt: FIG. 12A: estrogen, secreted by the ovary and endometriotic lesions, signals to macrophages and nerve fibers, including production of BDNF/NT-3 and pro-inflammatory cytokines, respectively. […] Activated CREB acts on the PTGS2 promoter, creating a positive feedback mechanism that results in elevated inflammation. PGE2 signaling also stimulates PKA/PKC signaling to induce the production of BDNF and NTF3 expression. […] Gene expression of PTGS2 was quantified using quantitative real time PCR (RT-PCR).
Thus, the present disclosure provides evidence that administration of CDD-2330 results in suppression of markers associated with inflammation, and accordingly, is suitable for the treatment of endometriosis.

[8] = Metabolic stability in human liver microsomes (HLM)
[9] = Metabolic stability in mouse liver microsomes (MLM)
NTRK1 = NTRK1 (Homo sapiens (Human), UniProt P04629); assay: NTRK1 inhibition (IC50); settings: read-out: NTRK1 IC50
Chain of NTRK1 (P04629 33-796): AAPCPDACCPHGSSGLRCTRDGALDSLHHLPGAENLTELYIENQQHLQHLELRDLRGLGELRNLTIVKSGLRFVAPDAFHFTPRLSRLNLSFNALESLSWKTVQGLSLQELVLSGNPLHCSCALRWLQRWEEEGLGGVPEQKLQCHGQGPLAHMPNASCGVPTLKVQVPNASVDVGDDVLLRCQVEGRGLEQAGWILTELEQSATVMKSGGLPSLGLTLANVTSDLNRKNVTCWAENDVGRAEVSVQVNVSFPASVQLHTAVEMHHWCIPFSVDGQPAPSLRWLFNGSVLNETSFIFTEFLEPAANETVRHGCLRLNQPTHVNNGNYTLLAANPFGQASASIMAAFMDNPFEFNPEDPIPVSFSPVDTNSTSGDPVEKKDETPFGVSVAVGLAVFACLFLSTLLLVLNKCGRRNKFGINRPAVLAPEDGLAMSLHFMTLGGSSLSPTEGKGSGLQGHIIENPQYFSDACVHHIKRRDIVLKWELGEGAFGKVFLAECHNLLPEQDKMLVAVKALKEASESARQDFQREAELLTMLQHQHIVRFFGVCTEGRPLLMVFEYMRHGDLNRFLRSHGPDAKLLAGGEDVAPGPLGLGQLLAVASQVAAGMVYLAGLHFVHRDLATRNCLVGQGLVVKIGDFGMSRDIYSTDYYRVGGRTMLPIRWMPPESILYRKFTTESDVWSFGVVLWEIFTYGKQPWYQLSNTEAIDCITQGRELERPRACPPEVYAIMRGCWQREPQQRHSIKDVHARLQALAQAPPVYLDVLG

human kinome = assay: KINOMEscan kinome-wide binding profiling; settings: 1 μM
Excerpt: (§1) FIG. 7B: Using the ThermoFisher Z'-LYTE™ screening assay, kinase specificity for the NTRK subfamily was observed.
(§2) To broadly assess the kinome-wide selectivity of CDD-2330, a KINOMEscan profiling platform was employed (FIG. 7A).

NTRK3 = NTRK3 (Homo sapiens (Human), UniProt Q16288); assay: NTRK3 inhibition (IC50); settings: read-out: NTRK3 IC50
Chain of NTRK3 (Q16288 32-839): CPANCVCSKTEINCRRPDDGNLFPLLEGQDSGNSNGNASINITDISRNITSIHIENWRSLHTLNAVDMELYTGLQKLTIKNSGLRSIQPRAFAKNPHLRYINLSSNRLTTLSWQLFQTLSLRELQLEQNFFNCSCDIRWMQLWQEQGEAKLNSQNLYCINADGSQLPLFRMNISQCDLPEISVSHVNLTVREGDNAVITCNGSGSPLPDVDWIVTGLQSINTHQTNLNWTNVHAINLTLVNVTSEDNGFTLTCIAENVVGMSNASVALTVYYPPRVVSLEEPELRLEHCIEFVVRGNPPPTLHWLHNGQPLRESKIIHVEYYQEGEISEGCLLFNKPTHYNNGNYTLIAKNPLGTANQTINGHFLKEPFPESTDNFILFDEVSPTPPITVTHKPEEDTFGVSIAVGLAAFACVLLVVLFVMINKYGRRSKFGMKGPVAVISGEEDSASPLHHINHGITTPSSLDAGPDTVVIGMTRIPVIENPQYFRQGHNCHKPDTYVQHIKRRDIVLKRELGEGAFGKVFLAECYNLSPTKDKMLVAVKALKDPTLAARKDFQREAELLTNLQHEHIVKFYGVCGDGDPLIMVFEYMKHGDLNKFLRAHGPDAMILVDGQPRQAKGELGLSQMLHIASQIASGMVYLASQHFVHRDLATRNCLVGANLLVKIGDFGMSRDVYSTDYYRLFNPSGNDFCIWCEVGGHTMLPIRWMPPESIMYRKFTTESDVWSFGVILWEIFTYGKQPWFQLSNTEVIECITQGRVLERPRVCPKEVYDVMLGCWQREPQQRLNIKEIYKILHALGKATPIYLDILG

[10] = Pharmacokinetics of orally administered CDD-2330 in mice; type: in vivo, mouse; settings: oral 50 mg/kg
Procedure: CDD-2330 was dissolved in 10% DMSO+0.5% methyl cellulose at 5 mg/mL. CDD-2330 was orally delivered at 50 mg/kg to mice (n=4). Blood samples were collected at 0, 0.25, 0.5, 1, 2, 4, 6, 8, and 24 h. Samples were analyzed by LC-MS, and the concentration of CDD-2330 was quantified with a standard curve (range: 0-10 μM). CDD-3031 was administered by oral gavage at a dose of 50 mg/kg. Blood samples were collected at […], 0.167, 0.25, 0.5, 1, 2, 4, 6, 8, and 24 h.

MAP3K19 = MAP3K19 (Homo sapiens (Human), UniProt Q56UN5); assay: ThermoFisher Z'-LYTE kinase assay, MAP3K19; type: biochemical
Chain of MAP3K19 (Q56UN5 whole entry): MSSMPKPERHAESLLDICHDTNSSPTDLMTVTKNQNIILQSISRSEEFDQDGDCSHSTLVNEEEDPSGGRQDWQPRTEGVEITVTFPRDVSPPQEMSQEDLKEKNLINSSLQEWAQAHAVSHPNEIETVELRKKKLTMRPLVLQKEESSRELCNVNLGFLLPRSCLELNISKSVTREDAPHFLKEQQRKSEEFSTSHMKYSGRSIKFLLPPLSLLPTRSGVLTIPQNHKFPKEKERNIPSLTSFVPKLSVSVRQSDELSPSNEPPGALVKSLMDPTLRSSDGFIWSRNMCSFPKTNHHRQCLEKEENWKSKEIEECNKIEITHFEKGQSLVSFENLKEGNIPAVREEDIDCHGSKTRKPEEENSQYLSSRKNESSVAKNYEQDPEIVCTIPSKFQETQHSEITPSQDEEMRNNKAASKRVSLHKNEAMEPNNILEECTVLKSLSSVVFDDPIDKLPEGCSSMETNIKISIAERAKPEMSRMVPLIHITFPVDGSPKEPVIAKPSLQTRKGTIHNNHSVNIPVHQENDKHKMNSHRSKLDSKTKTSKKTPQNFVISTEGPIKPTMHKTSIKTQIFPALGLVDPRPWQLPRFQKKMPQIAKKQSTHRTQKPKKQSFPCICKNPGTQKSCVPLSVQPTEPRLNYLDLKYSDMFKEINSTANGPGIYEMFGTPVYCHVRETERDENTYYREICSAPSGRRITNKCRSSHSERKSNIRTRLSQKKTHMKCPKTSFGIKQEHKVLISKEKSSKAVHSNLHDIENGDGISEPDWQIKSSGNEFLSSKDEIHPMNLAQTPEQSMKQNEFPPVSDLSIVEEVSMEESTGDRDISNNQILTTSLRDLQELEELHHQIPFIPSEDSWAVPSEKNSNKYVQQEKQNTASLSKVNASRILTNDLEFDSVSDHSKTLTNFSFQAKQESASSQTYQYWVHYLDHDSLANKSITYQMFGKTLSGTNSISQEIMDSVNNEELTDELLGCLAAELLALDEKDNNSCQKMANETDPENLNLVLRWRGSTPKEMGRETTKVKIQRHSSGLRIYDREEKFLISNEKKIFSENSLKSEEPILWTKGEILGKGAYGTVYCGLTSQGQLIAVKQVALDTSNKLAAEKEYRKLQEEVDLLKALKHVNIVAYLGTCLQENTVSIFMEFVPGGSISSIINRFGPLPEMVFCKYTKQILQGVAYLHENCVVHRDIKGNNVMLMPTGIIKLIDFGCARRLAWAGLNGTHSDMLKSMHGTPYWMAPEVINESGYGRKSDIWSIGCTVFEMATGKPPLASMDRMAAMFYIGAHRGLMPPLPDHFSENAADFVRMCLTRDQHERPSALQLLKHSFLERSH

NTRKs = assay: ThermoFisher Z'-LYTE kinase assay, NTRKs; type: biochemical; settings: Z'-LYTE dose response; range over NTRKs
Excerpt: as §1, §2

[11] = Plasma ALT and AST in mice after a high dose (50 mg/kg); type: in vivo, mouse
[12] = Mouse brain and testis distribution; type: in vivo; settings: ip, mice, intraperitoneal
Procedure: FIGS. 9A-9B show mouse brain (FIG. 9A) and testis (FIG. 9B) distribution of CDD-2330. Mice (n=3 per timepoint) were treated intraperitoneally with CDD-2330 and brain, testis, and blood samples were collected. Samples were processed and analyzed by LC-MS.

endometriotic lesions = assay: Endometriosis mouse model, lesion efficacy; type: in vivo
Procedure: FIGS. 17A-17F depict the robust efficacy of the inhibitory compounds of the present disclosure as NTRK2 inhibitors for inhibition of endometriotic lesion growth in mice utilizing CDD-3132 as an example. FIG. 17A provides a schematic overview of the experiment performed. FIGS. 17B-17C provide photographs showing excised lesions with administration of a control (FIG. 17B) or CDD-3132 (10 mg/kg/day) (FIG. 17C).
(§3) In one aspect, the present disclosure provides exemplary data relating to the administration of NTRK2 inhibitors in a mouse model of endometriosis (FIG. 14). In certain embodiments, the recipient mouse is administered the NTRK2 inhibitor and/or controls on day 14 after intraperitoneal injection of endometrium of the donor mouse. In certain embodiments, the recipient mouse is sacrificed and quantitatively assessed on day 28.

[13] = Brain uptake in mice 24 hours post-administration; type: in vivo, mouse; settings: mouse, brain, 24 h, read-out: Brain Concentration at 24 h (ng/mg)
[14] = Endometriosis mouse model, liver and kidney toxicity (organ weight, ALT, AST); type: in vivo; set-up: ALT (Mean ± SD) / AST (Mean ± SD): unit not given here
Procedure: as §3

[15] = in vivo; cited from earlier work
FLT3-ITD = settings: cited from earlier work
[16] = at 4 h; cited from earlier work
[17] = plasma, 48 h after oral 50 mg/kg CDD-2330, individual mice
[18] = group average, CDD-2737 at 10 mg/kg/day for 14 days, n-butyrate 100 mM
[19] = individual mice, CDD-2737 at 10 mg/kg/day for 14 days, n-butyrate 100 mM
[20] = i.p. dose of 10 mg/kg/day for 14 days

Molecule: 1-cyclobutyl-1-(pyrazolo[1,5-a]pyridin-5-ylmethyl)-3-(4-(trifluoromethoxy)phenyl)urea [CDD-2219]
cell penetration and effect in NanoBRET assays (NTRK2 [1]): able to penetrate cell membranes to induce an effect
MLM t1/2 [2]: 28.2 min
HLM t1/2 [3]: 54.8 min
Ki (NTRK2 [4]; read-out: NTRK2 Ki^app, apparent inhibition constant): 21 ± 7 nM
IC50 (NTRK2 [5]): 13 nM

Molecule: CC(C)N(Cc1ccn2ncc(C(=O)O)c2c1)C(=O)Nc1ccc(OC(F)(F)F)cc1 [CDD-2330, 5-((1-isopropyl-3-(4-(trifluoromethoxy)phenyl)ureido)methyl)pyrazolo[1,5-a]pyridine-3-carboxylic acid]
half-life [6]: > 1500 min
cell penetration and effect in NanoBRET assays (NTRK2 [1]): able to penetrate cell membranes to induce an effect
kinome-wide selectivity (KINOMEscan) (human kinome): highly specific for NTRK1, NTRK2, and NTRK3; also recorded: high specificity for NTRKs, with MAP3K19 as the only possible off-target
IC50 (NTRK3): 1.2 nM
blood level after oral administration [10]: rapid disappearance in the blood
IC50 (NTRK1): 3.8 nM
selectivity over MAP3K19 (MAP3K19; NTRKs vs MAP3K19, Z'-LYTE): > 100 fold
IC50 (MAP3K19; Z'-LYTE dose response): 401 nM
half-life [8]: 1540 min
IC50 (NTRKs): 1.2 to 3.8 nM
potential liver and other tissue toxicity ([11]; high dose, 50 mg/kg): minimal effects
ALT [11, 17]: 13.97 U/L and 26.17 U/L and 13.44 U/L and 18.74 U/L
AST [11, 17]: 19.45 U/L and 18.92 U/L and 26.17 U/L and 13.26 U/L
half-life [9]: 1640 min
IC50 (NTRK2 [5]): 3.5 nM
Kp at 4 h ([12]; brain, read-out: Brain:Plasma): 0.31
Kp at 4 h ([12]; testis, read-out: Testis:Plasma): 0.31

Molecule: CN1CCN(c2ccc(C(=O)Nc3n[nH]c4ccc(Cc5cc(F)cc(F)c5)cc34)c(NC3CCOCC3)c2)CC1 [Entrectinib, N-(5-(3,5-difluorobenzyl)-1H-indazol-3-yl)-4-(4-methylpiperazin-1-yl)-2-((tetrahydro-2H-pyran-4-yl)amino)benzamide]
blood-brain barrier crossing [15]: cross the blood-brain barrier

Molecule: FC(F)(F)c1ccc(CNc2ccc(Cc3c[nH]c4ncc(Cl)cc34)cn2)cn1 [Pexidartinib]
IC50 (FLT3-ITD): 9 nM

Molecule: CNCC[C@@H](Oc1ccccc1C)c1ccccc1 [atomoxetine]
Brain:Plasma (comparator antidepressant drug) [16]: 20

Molecule: O=C(Nc1cnn2ccc(N3CCC[C@@H]3c3cc(F)ccc3F)nc12)N1CC[C@H](O)C1 [larotrectinib]
blood-brain barrier crossing [15]: cross the blood-brain barrier

Further lines, with some results ahead:

Ki (NTRK2 [4]): 34 ± 10 nM
IC50 (NTRK2 [5]): 43 nM
Molecule: CCOc1ccc(CC(=O)N(Cc2ccn3nccc3c2)[C@H](C)c2ccccc2)cc1 [CDD-2222, (R)-2-(4-ethoxyphenyl)-N-(1-phenylethyl)-N-(pyrazolo[1,5-a]pyridin-5-ylmethyl)acetamide]

half-life [6]: > 420 min
half-life [8]: 442 min
Ki (NTRK2 [4]): 17 ± 10 nM
half-life [9]: 532 min
IC50 (NTRK2 [5]): 32 nM
Molecule: O=C(O)c1cnn2ccc(CN(C(=O)Nc3ccc(OC(F)(F)F)cc3)C3CCC3)cc12 [CDD-2262, 5-((1-cyclobutyl-3-(4-(trifluoromethoxy)phenyl)ureido)methyl)pyrazolo[1,5-a]pyridine-3-carboxylic acid]
concentration at which PTGS2 mRNA is statistically suppressed [7]: > 100 nM
cell penetration and effect in NanoBRET assays (NTRK2 [1]): able to penetrate cell membranes to induce an effect

IC50 (NTRK1): 31 nM
half-life [8]: 43.1 min
half-life [9]: 20.2 min
IC50 (NTRK2 [5]): 3.7 nM
Molecule: CC(C)N(Cc1ccn2nccc2c1)C(=O)Nc1ccc(OC(F)(F)F)cc1 [CDD-2299, 1-isopropyl-1-(pyrazolo[1,5-a]pyridin-5-ylmethyl)-3-(4-(trifluoromethoxy)phenyl)urea]
cell penetration and effect in NanoBRET assays (NTRK2 [1]): able to penetrate cell membranes to induce an effect

IC50 (NTRK3): 3.1 nM
IC50 (NTRK1): 6.1 nM
concentration at 24 h [13]: 40 ng/g
half-life [8]: 190 min
half-life [9]: 156 min
IC50 (NTRK2 [5]): 2.3 nM
Molecule: CC(C)N(Cc1ccn2ncc(C(N)=O)c2c1)C(=O)Nc1ccc(OC(F)(F)F)cc1 [CDD-2737, 5-((1-isopropyl-3-(4-(trifluoromethoxy)phenyl)ureido)methyl)pyrazolo[1,5-a]pyridine-3-carboxamide]
cell penetration and effect in NanoBRET assays (NTRK2 [1]): able to penetrate cell membranes to induce an effect
number and size of lesions (endometriotic lesions; endometriosis mouse model, compared to controls): decreases the number of lesions and the size of lesions; also recorded: decreased number of lesions and lesions of diminished size
gross and serum effects on the liver and kidney ([14]; endometriosis mouse model): no gross or serum effects; also recorded: no gross effects
ALT (U/L), Average [14, 18]: 15.2 U/L
AST (U/L), Average [14, 18]: 31.3 U/L
ALT (U/L) [14, 19]: 13.79 U/L and 13.61 U/L and 10.25 U/L and 23.16 U/L
AST (U/L) [14, 19]: 28.11 U/L and 47.21 U/L and 27.58 U/L and 22.28 U/L

IC50 (NTRK3): 13.7 nM
IC50 (NTRK1): 34 nM
half-life [8]: 28.3 min
half-life [9]: 6.3 min
IC50 (NTRK2 [5]): 6.1 nM
Molecule: CC(C)c1ccc(OCC(=O)N(Cc2ccn3ncc(C(N)=O)c3c2)C(C)C)cc1 [CDD-3032, 5-((N-isopropyl-2-(4-isopropylphenoxy)acetamido)methyl)pyrazolo[1,5-a]pyridine-3-carboxamide]
cell penetration and effect in NanoBRET assays (NTRK2 [1]): able to penetrate cell membranes to induce an effect

IC50 (NTRK3): 6.6 nM
IC50 (NTRK1): 3.8 nM
concentration at 24 h [13]: 140 ng/g
half-life [8]: 96 min
half-life [9]: 290 min
IC50 (NTRK2 [5]): 3.6 nM
Molecule: CC(C)N(Cc1ccn2ncc(C(N)=O)c2c1)C(=S)Nc1ccc(OC(F)(F)F)cc1 [CDD-3119, 5-((1-isopropyl-3-(4-(trifluoromethoxy)phenyl)thioureido)methyl)pyrazolo[1,5-a]pyridine-3-carboxamide]
number, volume and mass of lesions (endometriotic lesions; 10 mg/kg, compared to vehicle control): reduction of lesions, volume of lesions, and mass of lesions
endometriotic lesion growth (endometriotic lesions; 10 mg/kg, excised lesions): inhibiting endometriotic lesion growth
effect on liver and/or kidney weight and/or serum elevation of ALT and AST ([14]; 10 mg/kg, mice with endometriotic lesions): little to no effect
ALT (Mean ± SD) [14, 20]: 21.3 ± 4.9
AST (Mean ± SD) [14, 20]: 53.2 ± 18.5
impact on liver and kidney weights ([14]; mice treated for 14 days): no significant impact

Source: patent US20260049077A1, “Neurotrophic Receptor Tyrosine Kinase (NTRK) Inhibitors and Methods Using Same” (Baylor College of Medicine, priority 2022, published 2026)
